According to US6503869B1, “Enhanced post-emergent herbicidal compositions containing ammonium salts and methods of using the same” (Falcon Lab LLC, priority 2000, dated 2003):

Tests used:
fescue = experiment: Field study on fescue suppression; format: in vivo; settings: one week after spraying; 0.2% ammonium pelargonate alone; 15 gpa
Excerpt: A field study was made on fescue suppression (fescue thatch, 9-10 in. height, blade length 10-16 in.) using a 0.2% by weight solution of ammonium pelargonate alone, glyphosate ammonium salt alone (ROUNDUP DF®) at application rates of both 0.21 lb. active ingredient/acre (ai/A) and 0.42 lb. ai/A and a combination of 0.2% ammonium pelargonate with the same rates of ROUNDUP DF. The spray rate was 15 gal./acre (gpa) in all cases. One week after spraying, the following results were obtained: […]

weeds and grass = experiment: Time to visual phytotoxic effect after application to weeds (general statement); format: in vivo; settings: without ammonium pelargonate; 'or longer'
Excerpt: As an example, weed and grass necrosis may approach 100% within 24 hrs. with glyphosate in combination with ammonium pelargonate, compared to 3-4 days or longer without the ammonium pelargonate.
Unwanted vegetation may be killed by applying to the locus of the vegetation the herbicidal composition of the invention. The herbicidal composition of the invention may be contacted with the unwanted vegetation by spraying or otherwise distributing the composition onto the foliage in accordance with the manufacturers' directions of the post-emergent herbicide [to which has been added the compound of formula (I)]. […] Most importantly, the invention dramatically reduces the kill time. Leaves of vegetation sprayed with herbicidal compositions of the invention usually start to shrivel or turn brown within hours of a single application. Necrosis is evident, usually in 24 hours. Typically unwanted vegetation is dead in less than 24 hours compared to 3 to 4 days when the post-emergent is solely used. Since use of the compound of formula (I) decreases the amount of post-emergent herbicide required, the invention dramatically reduces costs.

Q: How did the necrosis (fescue) turn out when `CCCCCCCCC(=O)O.N` [Ammonium Pelargonate, ammonium pelargonate] was run?
A: 0%

Q: `O=C(O)CNCP(=O)(O)O` [glyphosate] was tested. Which “time until weed and grass necrosis may approach 100%” value (weeds and grass) did it give?
A: 3 to 4 days
